Results on 3 substances are retold here after US8178709B2, “Iron preparation suitable for pharmaceutical formulation and process for the preparation thereof” (BioLink Life Sciences, Inc., priority 2009, dated 2012).

The test system of one data set is macrophages. The following applies: ferric citrate-treated macrophages; cited from earlier work.
The next data set addresses human apotransferrin (Homo sapiens, UniProt P02787). Nature of the data set: Iron binding to human apotransferrin (method of Bates, absorbance at 470 nm). The following applies: Tris buffer with bicarbonate, pH 7.5, 25.0° C., FIG. 1. An excerpt: The major iron transport pool in human serum is iron bound to apotransferrin, an 80 kDa bilobal protein with two iron binding sites. The function of apotransferrin is: i) to bind iron and as transferrin (iron-laden apotransferrin) move iron from storage depots (ferritin) to various cell receptors; ii) to prevent iron from engaging in redox reactions which produce toxic free radicals; and iii) to prevent bacterial acquisition of this essential nutrient. Consequently, the best way to introduce iron into the normal metabolic pool is to deliver it to apotransferrin. […] Therefore, we measured the kinetics of Fe-transferrin formation from iron preparations of the invention and compared the kinetics to the kinetics of Fe-transferrin formation from commercial soluble ferric pyrophosphate and ferric sulfate-NTA complex at identical conditions according to the method of Bates, et al. [Bates, G. W., Billups, C. […]
The following test articles were evaluated in this study: Products 2-1 through 2-4 (described in Example 2); soluble ferric pyrophosphate (SFP), lot 112362 manufactured by The Dr. Paul Lohmann Chemical Company, Emmerthal, Germany (“Lohmann”); and ferric sulfate:NTA chelate.
Experimental Details. […] The binding of iron to apotransferrin was monitored at 470 nm, the absorption maximum for ferric transferrin. […]

human apotransferrin, sequence (P02787 20-698): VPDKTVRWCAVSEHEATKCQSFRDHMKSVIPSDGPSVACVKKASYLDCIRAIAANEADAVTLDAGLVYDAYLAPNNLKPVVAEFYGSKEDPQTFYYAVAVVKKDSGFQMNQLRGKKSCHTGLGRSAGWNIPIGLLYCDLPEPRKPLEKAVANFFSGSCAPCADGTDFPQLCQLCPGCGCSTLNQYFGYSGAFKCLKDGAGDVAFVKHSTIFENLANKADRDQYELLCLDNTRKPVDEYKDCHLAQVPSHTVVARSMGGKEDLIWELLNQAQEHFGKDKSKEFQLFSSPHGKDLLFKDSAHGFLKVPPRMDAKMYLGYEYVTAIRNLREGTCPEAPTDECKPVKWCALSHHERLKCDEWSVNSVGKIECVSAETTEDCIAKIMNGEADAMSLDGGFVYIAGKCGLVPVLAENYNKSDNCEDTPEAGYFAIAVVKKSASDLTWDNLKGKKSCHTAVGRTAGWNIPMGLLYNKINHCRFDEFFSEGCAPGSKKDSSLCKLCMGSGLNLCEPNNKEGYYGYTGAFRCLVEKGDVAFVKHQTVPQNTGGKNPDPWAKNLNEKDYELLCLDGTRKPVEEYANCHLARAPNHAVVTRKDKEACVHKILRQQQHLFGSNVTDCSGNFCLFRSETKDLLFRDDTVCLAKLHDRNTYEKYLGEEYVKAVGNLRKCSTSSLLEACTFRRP

In the case of ferric citrate, in the data set with macrophages, the “Level of lipid peroxidation” value was “significantly elevated” and the Phagocytic capacity result is “inhibited in a dose-related manner”.
For “ferric sulfate:NTA chelate [ferric sulfate-NTA chelate]”, at human apotransferrin, the “Extent (efficiency) of iron uptake by human apotransferrin” value is recorded as “near quantitative efficiency”.
Regarding soluble ferric pyrophosphate, the “Extent (efficiency) of iron uptake by human apotransferrin” value on human apotransferrin is recorded as “near quantitative efficiency”.
